Assay results: patent US20050234113A1, “Antioxidant and radical scavenging activity of synthetic analogs of desferrithiocin” (University of Florida Research Foundation, Inc., priority 2002, published 2005)
Where “and” joins values, the source holds several entries; their conditions need not be identical. Identical values can stand only once. Like-named read-outs stand apart in the source and are kept apart here. Marks after values point to notes of the source that are not given here.

Key:
[1] = Quenching of the ABTS radical cation
[2] = test system: iron; conditions: cited from earlier work
[3] = Table 1, A734, six-minute reaction, pH 7.4, 1.25 to 15 μM
[4] = Table 3, A734, 6-min reaction, values marked b are the inventors' unpublished results
[5] = 150 μmol/kg po (footnote d: dose administered, 300 μmol/kg)
[6] = 150 μmol/kg sc, suspension in water, n = 3
[7] = 300 μmol/kg po, in 40% Cremophor

Structure (SMILES)	Slope × 10^3 OD units/μM (ABTS radical cation quenching) [1, 3]	Slope × 10^3 OD units/μM (ABTS radical cation quenching) [1, 4]	% stool (of iron excreted), monkeys [2, 5] [%]	% urine (of iron excreted), monkeys [2, 5] [%]	efficiency in monkeys (%) [2, 5]	% stool (of iron excreted), monkeys ([2]; 150 μmol/kg sc, n = 5) [%]	% urine (of iron excreted), monkeys ([2]; 150 μmol/kg sc, n = 5) [%]	efficiency in monkeys (%) ([2]; 150 μmol/kg sc, n = 5)	% stool (of iron excreted), monkeys [2, 6] [%]	% urine (of iron excreted), monkeys [2, 6] [%]	efficiency in monkeys (%) [2, 6]	% stool (of iron excreted), monkeys [2, 7] [%]	% urine (of iron excreted), monkeys [2, 7] [%]	efficiency in monkeys (%) [2, 7]
CC(=O)N(O)CCCCCNC(=O)CCC(=O)N(O)CCCCCNC(=O)CCC(=O)N(O)CCCCCN [DFO, Desferrioxamine B, reference compound]	−136.8 × 10^3 OD units/μM	−137^b × 10^3 OD units/μM	55	45	0.1±0.4% and 0.1 ± 0.4^d %	45	55	5.5±0.9	–	–	–	–	–	–
O=C(O)[C@H]1CSC(c2ccc(O)cc2O)=N1 [4′-(HO)-DADMDFT, 4′-hydroxydesazadesmethyldesferrithiocin]	−101.6 × 10^3 OD units/μM	−102^b × 10^3 OD units/μM	–	–	–	–	–	–	92	8	5.6±0.9% and 5.6 ± 0.9^f %	90	10	5.3±1.7% and 5.3 ± 1.7^f %
